16 compounds from ChEMBL document CHEMBL5360534, “Synthetic α-glucosidase inhibitors as promising anti-diabetic agents: Recent developments and future challenges” (Eur J Med Chem, 2023) can be followed below.

SMILES strings stand for the structures.

Experiment [1] deals with T1, Alpha-glucosidase (Saccharomyces cerevisiae S288c, UniProt P53341+P38158+P07265). Briefly: Inhibition of Saccharomyces cerevisiae alpha-glucosidase using p-nitrophenyl glucopyranoside as substrate preincubated for 10 mins followed by substrate addition and measured after 20 mins by spectrophotometric analysis. It counts as protein assay.
The target in experiment [2] is T1, Alpha-glucosidase. Briefly: Competitive inhibition of Saccharomyces cerevisiae alpha-glucosidase using p-nitrophenyl glucopyranoside as substrate assessed as inhibition constant preincubated for 15 mins followed by substrate addition and measured after 20 mins by spectrophotometric analysis. It counts as protein assay.
Experiment [3] has as its target T1, Alpha-glucosidase. Briefly: Un-competitive inhibition of Saccharomyces cerevisiae alpha-glucosidase using p-nitrophenyl glucopyranoside as substrate assessed as inhibition constant preincubated for 15 mins followed by substrate addition and measured after 20 mins by spectrophotometric analysis. In kind it is protein assay.
Experiment [4] is described as follows: Inhibition of rat intestinal alpha-glucosidase.
Experiment [5] in a line: Inhibition of rat intestinal alpha-glucosidase assessed as inhibition constant.
Experiment [6] in a line: Inhibition of alpha-glucosidase (unknown origin) using PNP glycoside as substrate preincubated for 30 mins followed by substrate addition and measured after 1 min by spectrophotometric analysis. Set-up: species or system Homo sapiens.
Experiment [7] can be described thus: Inhibition of alpha-glucosidase (unknown origin) using 4-nitrophenyl-[…]-D-glucopyranoside as substrate preincubated for 20 mins followed by substrate addition and measured after 1 hr by absorbance based analysis. Set-up: species or system Homo sapiens.
In experiment [8] the target is T1, Alpha-glucosidase. Briefly: Inhibition of Saccharomyces cerevisiae alpha-glucosidase using p-nitrophenyl-alpha-D-glucopyranoside as substrate preincubated for 10 mins followed by substrate addition and measured after 20 mins by absorbance based microplate reader analysis. It counts as protein assay.
Experiment [9] in a line: Inhibition of Saccharomyces cerevisiae alpha-glucosidase type I using p-nitrophenyl-alpha-D-glucopyranoside as substrate preincubated for 10 mins followed by substrate addition and measured after 30 mins by absorbance based analysis.
The test system of experiment [10] is Saccharomyces cerevisiae. The experiment can be described thus: Potency index, ratio of acarbose IC50 to test compound IC50 for inhibition of Saccharomyces cerevisiae alpha-glucosidase type I using p-nitrophenyl-alpha-D-glucopyranoside as substrate preincubated for 10 mins followed by substrate addition and measured after 30 mins by absorbance based analysis. To be noted: time 40.0 min.

Experiment [11] can be described thus: Inhibition of alpha-glucosidase (unknown origin) using p-NPG as substrate assessed as inhibition constant preincubated with compound followed by substrate addition and measured by absorbance based analysis. Set-up: species or system Homo sapiens.
Experiment [12] is filed under the species Rattus norvegicus. Briefly: Anti-hyperglycemic activity against STZ-induced hyperglycemic rat model assessed as reduction in blood glucose level relative to control. In kind it is functional. Also on record: scale not given: the % may be the effect or the level left.
A short description of experiment [13]: Inhibition of alpha-glucosidase (unknown origin). Set-up: species or system Homo sapiens.
Experiment [14] concerns the target T1, Alpha-glucosidase. The experiment can be described thus: Inhibition of Saccharomyces cerevisiae alpha-glucosidase using p-nitrophenyl-alpha-D-glucopyranoside as substrate preincubated for 5 mins followed by substrate addition and measured after 30 mins by absorbance based microplate reader analysis. In kind it is protein assay.
A short description of experiment [15]: Competitive inhibition of alpha-glucosidase (unknown origin) assessed as inhibition constant. Set-up: species or system Homo sapiens.
Experiment [16] has as its target T1, Alpha-glucosidase. Briefly: Non-competitive inhibition of Saccharomyces cerevisiae alpha-glucosidase using p-nitrophenyl glucopyranoside as substrate assessed as inhibition constant preincubated for 15 mins followed by substrate addition and measured after 20 mins by spectrophotometric analysis. It counts as protein assay.
In experiment [17] the target is T1, Alpha-glucosidase. The experiment can be described thus: Inhibition of Saccharomyces cerevisiae alpha-glucosidase using p-nitrophenyl-alpha-D-glucopyranoside as substrate incubated for 15 mins by UV-visible spectrophotometric analysis. It counts as protein assay.
Experiment [18] concerns the target T1, Alpha-glucosidase. The experiment can be described thus: Inhibition of Saccharomyces cerevisiae alpha-glucosidase using p-nitrophenyl-alpha-D-glucopyranoside as substrate preincubated for 15 mins followed by substrate addition and measured after 30 mins by multiplate reader analysis. It counts as protein assay.
Experiment [19] has as its target T1, Alpha-glucosidase. The experiment can be described thus: Non-competitive inhibition of Saccharomyces cerevisiae alpha-glucosidase using p-nitrophenyl-alpha-D-glucopyranoside as substrate assessed as inhibition constant preincubated for 15 mins followed by substrate addition and measured after 30 mins by multiplate reader analysis. It counts as protein assay.

Experiment [20] is described as follows: Mixed-type inhibition of alpha-glucosidase (unknown origin) using p-nitropheny-alpha-D-glucopyranoside as substrate assessed as inhibition constant by measuring intercept versus drug/substrate concentration preincubated for 5 mins followed by substrate addition and measured after 10 mins by absorbance based microplate reader analysis. Also on record: species or system Homo sapiens.

The nature of experiment [21]: Inhibition of alpha-glucosidase (unknown origin) using p-nitrophenyl-alpha-D-glucopyranoside as substrate preincubated for 5 mins followed by substrate addition and measured after 10 mins by absorbance based microplate reader analysis. Also on record: species or system Homo sapiens.
Experiment [22] is described as follows: Mixed-type inhibition of alpha-glucosidase (unknown origin) using p-nitropheny-alpha-D-glucopyranoside as substrate assessed as inhibition constant by measuring secondary plot of 1/V versus drug concentration preincubated for 5 mins followed by substrate addition and measured after 10 mins by absorbance based microplate reader analysis. Set-up: species or system Homo sapiens.

The target in experiment [23] is T1, Alpha-glucosidase. Briefly: Competitive inhibition of Saccharomyces cerevisiae alpha-glucosidase using p-nitrophenyl-alpha-D-glucopyranoside as substrate assessed as inhibition constant preincubated for 10 mins followed by substrate addition and measured after 20 mins by absorbance based analysis. In kind it is protein assay.
The target in experiment [24] is T1, Alpha-glucosidase. The experiment can be described thus: Inhibition of Saccharomyces cerevisiae alpha-glucosidase using p-nitrophenyl-alpha-D-glucopyranoside as substrate preincubated for 10 mins followed by substrate addition and measured after 20 mins by absorbance based analysis. It counts as protein assay.

As to `O=C(Cn1cc(CNC(=O)c2c3ccccc3nc3ccccc23)nn1)Nc1cccc(Br)c1`, in experiment [1], the IC50 (in general, the concentration that inhibits the measured activity by half) turned out to be 80.3 µM. Also, the inhibition constant Ki (commonly the equilibrium dissociation constant of an inhibitor or competing ligand from its target) in experiment [2] was determined as 78 µM.

With `N#CC1=C(N)Oc2c(c(=O)[nH]c3c2ccc2ccccc23)C1c1ccc(Cl)cc1` (configuration not stated), the IC50 in [1] is 10.3 µM. In experiment [3], the Ki stood at 11 µM. In experiment [4], `N[C@H]1[C@H](O)[C@@H](O)[C@H](O)[C@@H](CO)[C@@H]1CCO` displayed an IC50 of 5.8 µM. For the same compound, the inhibition constant (Ki) in experiment [5] amounted to 6.3 µM. Turning to `C(=N\Nc1nc(-c2ccc(-c3ccccc3)cc2)cs1)/c1cccc2ccccc12`, half-maximal inhibition in experiment [6] (IC50) was put at 6.2 µM. In the case of `Oc1ccccc1-c1cc(-c2ccc(C(F)(F)F)cc2)n(-c2ccccc2)n1`, in experiment [7], the 50% inhibitory concentration (IC50) was 115 µM. The compound `O=C1CS/C(=N\N=C\c2ccc(OS(=O)(=O)c3ccccc3[N+](=O)[O-])cc2)N1` registered a half-maximal inhibitory concentration (IC50) in experiment [8] of 42.8 µM.

Consider `Cc1nn(-c2ccc(Nc3cccc(Cl)c3)nn2)c(C)c1[N+](=O)[O-]`, for which 19.3 µM corresponded to half-maximal inhibition in experiment [9] (IC50). The Ratio IC50 in experiment [10] was determined as 1.98.

Take `COc1c(C(=O)/C=C/c2ccc(Br)cc2)c(OC)c(C(=O)/C=C/c2ccc(Br)cc2)c(OC)c1C(=O)/C=C/c1ccc(Br)cc1`: in experiment [11], the Ki came out at 0.0039 µM. Take `COc1ccc(-n2c(SCC(=O)N/N=C/c3ccc(O)cc3)nc3ccccc3c2=O)cc1`: in [12], the Activity came out at 43.07%. In [13], this compound registered a concentration for half-maximal inhibition (IC50) of 561 µM. In [14], `COc1cccc(NC(=O)Cn2nc3c(c2C)N(C)Sc2ccccc2-3)c1` gave an IC50 of 5.8 µM. Take `Cn1cnnc1SC(=O)c1ccc(-c2ccccc2Cl)o1`: it took 2.2 µM to reach half-maximal inhibition in experiment [13] (IC50). Also, the Ki in [15] was found to be 5.1 µM. In the case of `N#CC1=C(N)Oc2c(c(=O)[nH]c3c2ccc2ccccc23)C1c1ccc(Br)cc1` (configuration not stated), the IC50 in experiment [1] came out at 15.7 µM. Besides, in experiment [16], the inhibition constant (Ki) turned out to be 28 µM.

As to `OC[C@H]1O[C@H](OCc2cn(C[C@H]3O[C@@H]4O[C@H]5[C@H](O)[C@@H](O)[C@@H](O[C@H]6[C@H](O)[C@@H](O)[C@@H](O[C@H]7[C@H](O)[C@@H](O)[C@@H](O[C@H]8[C@H](O)[C@@H](O)[C@@H](O[C@H]9[C@H](O)[C@@H](O)[C@@H](O[C@H]%10[C@H](O)[C@@H](O)[C@@H](O[C@H]%11[C@H](O)[C@@H](O)[C@@H](O[C@H]3[C@H](O)[C@H]4O)O[C@@H]%11Cn3cc(CO[C@H]4O[C@H](CO)[C@@H](O)[C@H](O)[C@@H]4O)nn3)O[C@@H]%10Cn3cc(CO[C@H]4O[C@H](CO)[C@@H](O)[C@H](O)[C@@H]4O)nn3)O[C@@H]9Cn3cc(CO[C@H]4O[C@H](CO)[C@@H](O)[C@H](O)[C@@H]4O)nn3)O[C@@H]8Cn3cc(CO[C@H]4O[C@H](CO)[C@@H](O)[C@H](O)[C@@H]4O)nn3)O[C@@H]7Cn3cc(CO[C@H]4O[C@H](CO)[C@@H](O)[C@H](O)[C@@H]4O)nn3)O[C@@H]6Cn3cc(CO[C@H]4O[C@H](CO)[C@@H](O)[C@H](O)[C@@H]4O)nn3)O[C@@H]5Cn3cc(CO[C@H]4O[C@H](CO)[C@@H](O)[C@H](O)[C@@H]4O)nn3)nn2)[C@@H](O)[C@@H](O)[C@@H]1O`, the IC50 in experiment [17] was found to be 32 µM. For the compound `Oc1ccc(Br)cc1-c1nc2cc(Cl)ccc2s1`, in experiment [18], the IC50 stood at 22.1 µM. In addition, the Ki in experiment [19] was 16.03 µM. Consider `O=C1CNC(=S)N1C(=O)c1cc([N+](=O)[O-])cc([N+](=O)[O-])c1`, for which the Ki in [20] was 156 µM; in experiment [22] it was 34 µM. The same compound returned an IC50 in experiment [21] of 50 µM.

For `Cc1ccc(NC(=O)Oc2ccc(-c3nc4ccccn4c3NC(C)(C)C)cc2)cc1`, the Ki in [23] is 71 µM. The compound also registered an IC50 in [24] of 75.6 µM.
